Test results published in patent US20160348147A1, “SYSTEMS AND DEVICES FOR PROTEASE DETECTION BASED ON ENGINEERED POLYMERS AND BIOPOLYMERS AND METHODS OF USE” (DUKE UNIVERSITY, priority 2014, published 2016).

What was measured:
[1] = system: endogenous MMP-1 in human serum; experiment: Time-dependent aggregation (OD350) of ELP-substrate fusion in diluted human serum (40%); assay type: biochemical; details: diluted serum with no added MMP-1, 37° C.
Method: We performed the proteolysis reactions either in 100% protease buffer or in a mixture of human serum and buffer (40% (v/v) serum, 50% (v/v) buffer, 10% (v/v) ELP-substrate solution in water). The proteolysis buffer (100 mM HEPES, CaCl2 20 mM, MgCl2 1.0 mM, ZnCl2 100 μM, NaCl 0.5 M for diluted serum and 0.1 M for buffer solutions) was made experimentally in our lab based on previously published assays (Patterson, J. & Hubbell, J. A. Biomaterials 2010, 31, 7836-7845; Turk, B. E. et al., Nature Biotechnology 2001, 19, 661-667; Lowe, S. B. et al., Acs Nano 2012, 6, 851-857). We investigated proteolysis in two ways. In the first approach, we incubated solutions of the ELP-substrate fusion with MMP-1 (100 ng/mL) for 12 h at 40° C. temperature and measured the optical density at 350 nm (OD350) before and after the incubation. In the second approach, we incubated the ELP-substrate fusion with varying concentrations of MMP-1 (0.02 ng/mL to 200 ng/mL) in buffer or in diluted human serum, at 40° C. or 37° C. respectively, a temperature that is above the CMT of the ELP, and monitored the changes OD350 as a function of time (kinetic study). For the kinetic studies, we added the enzyme to the solution after the optical density of the solution reached a steady-state value and repeated the experiments at least three times. […]

[2] = molecular target: T1, MMP-1 (Homo sapiens, UniProt P03956); experiment: Kinetic study of MMP-1 cleavage (SDS-PAGE, Lineweaver-Burke plot); assay type: biochemical; details: substrate 25, 50, 100, 200 μM, enzyme 20 ng/mL, buffer, 40° C.
T1 construct: Human MMP-1 catalytic domain (recombinant, produced in E. coli, 19.9 kDa, >95% purity); purchased Enzo Life Sciences (Farmingdale, N.Y.); host or cells: E. coli
T1 sequence (P03956 100-269 limits assumed): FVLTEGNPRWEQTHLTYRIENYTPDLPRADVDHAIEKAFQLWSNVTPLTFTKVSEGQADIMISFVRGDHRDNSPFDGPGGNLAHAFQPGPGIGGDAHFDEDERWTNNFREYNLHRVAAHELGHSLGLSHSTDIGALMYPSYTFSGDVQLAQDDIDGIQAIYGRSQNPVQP
Method: We used mass spectrometry to examine the cleavage of the MMP-1 substrate peptide in the ELP-substrate fusion by measuring the molecular weight of the polypeptides prior to, and after incubation with MMP-1. We incubated 0.5 mL of 100 μM polypeptide in proteolysis buffer with 100 ng/mL of MMP-1 for 2 h at 25° C. […] For example, an enzymatic reaction can be written in general form as:
In which V0 is the initial rate of the enzymatic reaction at a given substrate concentration. Using equation Eq. 4, we can calculate Vmax by plotting 1/V0 versus 1/[S] at different substrate concentrations and a constant enzyme concentration and then calculate kcat by implementing equation Eq. 3.
We performed a series of kinetic studies in which the concentration of the substrate in the buffer solution was chosen to be 25, 50, 100, and 200 μM. We then added 20 ng/mL of enzyme to each of the solutions and kept all the solutions at a constant temperature (40′C). […] We quantified these changes by image analysis (ImageJ software) and used them to quantify the amount of product for each substrate concentration at each sampling time. We then calculated the initial rate of the reaction (V0) by using the concentration of the converted substrate and the time of reaction.
We then used equation Eq. 4 and plotted 1/[S] versus 1/[V0] […] From Vmax and equation Eq. 3, we calculated kcat to be equal to 8.0±1.9 s^−1. […]

For “M(GVGVP)60GDGQVPMSMRGGDDEGQQDDEEGY (MGVGVPGDGQVPMSMRGGDDEGQQDDEEGY) [ELP-substrate fusion, recombinant polypeptide: ELP fused to MMP-1 substrate and charged hydrophilic peptide]”, the aggregation time [1] was ~350 min and the kcat [2] was 8.0 ± 1.9 s⁻¹.
